Our source for the IC50 values is patent US6855730B2, “3-methylidenyl-2-indolinone modulators of protein kinase” (Sugen, Inc., priority 1998, dated 2005).

One experiment addresses T1, flkGST (Homo sapiens, UniProt P35968).
T1 construct: GST
Description: bio flkGST assay. Type of experiment: biochemical.

The subject of experiment [1] is HUV-EC-C cells (VEGF, Flk-1/KDR). The experiment is described as follows: HUV-EC-C assay, VEGF-stimulated 3H-thymidine incorporation. Type of experiment: cell-based. The note with it: Homo sapiens, read-out: HUVEC-VEGF IC50. In general terms: Incorporation of labelled thymidine or its analogues reports DNA synthesis.
Description: Repeat the wash two more times with D-PBS, resuspend the cells in-about 1 ml assay medium/15 cm^2 of tissue culture flask. […] Add cells to 96-well flat-bottom plates at 100 μl/well or 0.8-1.0×10^4 cells/well, incubate −24h at 37° C., 5% CO2.
Use the same assay medium as mentioned in day 0, step 2 above. Titrations are made by adding 90 μl/well of test compound at 200 μM (4× the final well concentration) to the top well of a particular plate column. Since the stock test compound is usually 20 mM in DMSO, the 200 μM drug concentration contains 2% DMSO.
A diluent made up to 2% DMSO in assay medium (F12K+0.5% fetal bovine serum) is used as diluent for the test compound titrations in order to dilute the test compound but keep the DMSO concentration constant. Add this diluent to the remaining wells in the column at 60 μl/well. Take 60 μl from the 120 μl of 200 μM test compound dilution in the top well of the column and mix with the 60 μl in the second well of the column. Take 60 μl from this well and mix with the 60 μl in the third well of the column, and so on until two-fold titrations are completed. When the next-to-the-last well is mixed, take 60 μl of the 120 μl in this well and discard it. Leave the last well with 60 μl of DMSO/media diluent as a non-test compound-containing control. […] In triplicate, add 50 μl/well of 80 μg/ml VEGF, 20 ng/ml ECGF, or media control to each test compound condition. As with the test compounds, the growth factor concentrations are 4× the desired final concentration. Use the assay media from day 0 step 2 to make the concentrations of growth factors.
Freeze plates overnight at −20° C.
For experiment [2], the target named is T2, 3T3 cell line genetically engineered to express human PDGF-R (Homo sapiens, UniProt P09619).
T2 construct: expressed in transfected cells; host or cells: 3T3
The experiment is described as follows: PDGF-induced BrdU incorporation assay. In kind it is cell-based.
Description: The general procedure is as follows: a compound is introduced to cells expressing the test kinase, either naturally or recombinantly, for a selected period of time after which, if the test kinase is a receptor, a ligand known to activate the receptor is added. […] The cellular/biologic assays described herein measure the amount of DNA made in response to activation of a test kinase, which is a general measure of a proliferative response. The general procedure for this assay is as follows: a compound is introduced to cells expressing the test kinase, either naturally or recombinantly, for a selected period of time after which, if the test kinase is a receptor, a ligand known to activate the receptor is added. After incubation at least overnight, a DNA labeling reagent such as Bromodeoxyuridine (BrdU) or 3H-thymidine is added. The amount of labeled DNA is detected with either an anti-BrdU antibody or by measuring radioactivity and is compared to control cells not contacted with a test compound.
PDGF-Induced BrdU Incorporation Assay
Protocol • (1) Cells are seeded at 8000 cells/well in DMEM, 10% CS, 2mM Gln in a 96 well plate. […] The negative control wells receive serum free DMEM with 0.1% BSA only, the positive control cells receive the ligand (PDGF) but no test compound. […] FixDenat solution is added (50 μ/well) and the plates are incubated at room temperature for 45 minutes on a plate shaker. • (6) The FixDenat solution is thoroughly removed by decanting and tapping the inverted plate on a paper towel. Milk is added (5% dehydrated milk in PBS, 200 μ/well) as a blocking solution and the plate is incubated for 30 minutes at room temperature on a plate shaker. • (7) The blocking solution is removed by decanting and the wells are washed once with PBS. Anti-BrdU-POD solution (1:100 dilution in PBS, 1% BSA) is added (100 μl/well) and the plate is incubated for 90 minutes at room temperature on a plate shaker. • (8) The antibody conjugate is thoroughly removed by decanting and rinsing the wells 5 times with PBS, and the plate is dried by inverting and tapping on a paper towel. • (9) TMB substrate solution is added (100 μl/well) and incubated for 20 minutes at room temperature on a plate shaker until color development is sufficient for photometric detection. • (10) The absorbance of the samples are measured at 410 nm (in “dual wavelength” mode with a filter reading at 490 nm, as a reference wavelength) on a Dynatech ELISA plate reader.

A further experiment addresses T3, human flk-1 (Homo sapiens, UniProt P35968).
T3 construct: host or cells: Flk-1/NIH cells (NIH fibroblasts)
The experiment is described as follows: Biochemical FLK-1 assay (flk-1 autophosphorylation ELISA). The note with it: read-out: bio FLK1 IC50 (μM) % if inhibition at 100. An outline of the steps: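 Flk-1 from lysates of NIH fibroblasts over-expressing human flk-1 (50 μg/well) was captured on anti-flk-1 antibody-coated plates, then autophosphorylated with test compounds and ATP (0.3 mM working solution) for 60 min at room temperature before EDTA stop. Phosphotyrosine was detected with biotinylated 4G10, avidin-biotin peroxidase and TMB at 450 nm.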
(In an ELISA, binding on a coated surface is turned into a signal by an enzyme label.)

Another experiment deals with pyk2 (Homo sapiens, UniProt Q14289). Description: bio pyk2 assay. In kind it is biochemical.
pyk2, sequence (Q14289 whole entry, species assumed): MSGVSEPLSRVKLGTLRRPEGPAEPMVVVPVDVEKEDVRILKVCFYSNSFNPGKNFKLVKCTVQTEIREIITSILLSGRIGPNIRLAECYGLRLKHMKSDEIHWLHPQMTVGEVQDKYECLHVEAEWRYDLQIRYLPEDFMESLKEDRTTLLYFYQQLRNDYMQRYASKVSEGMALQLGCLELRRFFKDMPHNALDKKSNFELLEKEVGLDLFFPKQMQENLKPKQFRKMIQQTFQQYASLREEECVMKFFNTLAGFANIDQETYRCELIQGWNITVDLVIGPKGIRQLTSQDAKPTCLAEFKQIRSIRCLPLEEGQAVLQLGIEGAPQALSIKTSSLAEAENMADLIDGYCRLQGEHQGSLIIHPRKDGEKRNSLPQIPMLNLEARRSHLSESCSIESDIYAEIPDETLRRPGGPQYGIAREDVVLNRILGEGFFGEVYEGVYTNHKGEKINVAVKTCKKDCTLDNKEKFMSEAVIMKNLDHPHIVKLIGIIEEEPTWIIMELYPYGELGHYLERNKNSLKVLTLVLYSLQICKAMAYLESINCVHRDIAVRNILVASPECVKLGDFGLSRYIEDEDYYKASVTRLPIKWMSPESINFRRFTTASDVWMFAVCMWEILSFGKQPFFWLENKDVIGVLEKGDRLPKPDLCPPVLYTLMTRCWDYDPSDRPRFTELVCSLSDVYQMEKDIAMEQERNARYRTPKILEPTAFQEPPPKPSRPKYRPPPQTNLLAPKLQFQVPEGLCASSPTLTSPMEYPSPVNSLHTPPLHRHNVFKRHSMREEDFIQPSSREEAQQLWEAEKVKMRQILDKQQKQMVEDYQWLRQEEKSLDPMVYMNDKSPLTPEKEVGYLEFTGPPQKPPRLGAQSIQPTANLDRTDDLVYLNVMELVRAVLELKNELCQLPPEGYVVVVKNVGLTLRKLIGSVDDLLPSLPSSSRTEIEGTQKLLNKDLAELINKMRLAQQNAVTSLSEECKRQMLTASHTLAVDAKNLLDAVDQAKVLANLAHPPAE
For the next experiment, the target named is T4, src protein kinase (Gallus gallus, UniProt P00523).
T4 construct: host or cells: Schizosaccharomyces pombe SP200
The experiment is described as follows: Biochemical SRC assay (phosphorylation of biotinylated peptide). To be noted: read-out: bio src IC50.

Where [3] appears, read: read-out: PDGF-Induced BrdU Incorp. IC50.

Read-outs that look alike come from different tables or passages of the source.

T3 sequence (P35968 20-1356): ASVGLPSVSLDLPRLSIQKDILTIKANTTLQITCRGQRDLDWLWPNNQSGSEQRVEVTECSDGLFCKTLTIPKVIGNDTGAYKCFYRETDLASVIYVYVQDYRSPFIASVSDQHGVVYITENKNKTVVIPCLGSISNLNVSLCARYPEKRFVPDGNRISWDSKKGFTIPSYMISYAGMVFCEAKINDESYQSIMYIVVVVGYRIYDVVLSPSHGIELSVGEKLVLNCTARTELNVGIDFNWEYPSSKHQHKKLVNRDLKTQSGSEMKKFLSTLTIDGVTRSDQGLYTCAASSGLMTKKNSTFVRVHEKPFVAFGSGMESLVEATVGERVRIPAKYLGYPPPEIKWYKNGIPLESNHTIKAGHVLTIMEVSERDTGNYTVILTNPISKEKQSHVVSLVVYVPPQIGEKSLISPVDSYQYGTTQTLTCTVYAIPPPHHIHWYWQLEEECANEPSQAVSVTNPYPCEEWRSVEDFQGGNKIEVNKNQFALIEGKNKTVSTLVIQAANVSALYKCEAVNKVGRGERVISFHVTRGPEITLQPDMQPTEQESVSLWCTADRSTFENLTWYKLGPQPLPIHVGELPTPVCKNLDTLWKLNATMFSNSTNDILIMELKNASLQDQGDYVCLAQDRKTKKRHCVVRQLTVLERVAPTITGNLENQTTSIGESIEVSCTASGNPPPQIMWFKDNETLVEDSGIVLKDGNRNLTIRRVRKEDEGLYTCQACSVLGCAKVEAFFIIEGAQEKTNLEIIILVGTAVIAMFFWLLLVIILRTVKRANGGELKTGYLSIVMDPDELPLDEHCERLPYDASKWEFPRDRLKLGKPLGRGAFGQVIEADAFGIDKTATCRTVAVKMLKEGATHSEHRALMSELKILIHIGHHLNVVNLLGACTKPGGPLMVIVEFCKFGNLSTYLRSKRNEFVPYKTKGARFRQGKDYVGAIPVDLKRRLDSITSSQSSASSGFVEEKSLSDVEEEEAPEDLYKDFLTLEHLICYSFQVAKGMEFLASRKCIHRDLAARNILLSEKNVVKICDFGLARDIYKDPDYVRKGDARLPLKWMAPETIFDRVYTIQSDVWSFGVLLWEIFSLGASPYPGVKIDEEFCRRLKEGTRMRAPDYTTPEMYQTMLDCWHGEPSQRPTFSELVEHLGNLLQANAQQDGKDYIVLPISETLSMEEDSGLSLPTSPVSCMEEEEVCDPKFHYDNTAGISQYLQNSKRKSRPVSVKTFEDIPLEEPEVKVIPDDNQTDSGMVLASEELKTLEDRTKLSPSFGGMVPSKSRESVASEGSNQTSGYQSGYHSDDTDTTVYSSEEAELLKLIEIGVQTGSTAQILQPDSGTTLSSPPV
T1 sequence (P35968 786-1356 limits assumed): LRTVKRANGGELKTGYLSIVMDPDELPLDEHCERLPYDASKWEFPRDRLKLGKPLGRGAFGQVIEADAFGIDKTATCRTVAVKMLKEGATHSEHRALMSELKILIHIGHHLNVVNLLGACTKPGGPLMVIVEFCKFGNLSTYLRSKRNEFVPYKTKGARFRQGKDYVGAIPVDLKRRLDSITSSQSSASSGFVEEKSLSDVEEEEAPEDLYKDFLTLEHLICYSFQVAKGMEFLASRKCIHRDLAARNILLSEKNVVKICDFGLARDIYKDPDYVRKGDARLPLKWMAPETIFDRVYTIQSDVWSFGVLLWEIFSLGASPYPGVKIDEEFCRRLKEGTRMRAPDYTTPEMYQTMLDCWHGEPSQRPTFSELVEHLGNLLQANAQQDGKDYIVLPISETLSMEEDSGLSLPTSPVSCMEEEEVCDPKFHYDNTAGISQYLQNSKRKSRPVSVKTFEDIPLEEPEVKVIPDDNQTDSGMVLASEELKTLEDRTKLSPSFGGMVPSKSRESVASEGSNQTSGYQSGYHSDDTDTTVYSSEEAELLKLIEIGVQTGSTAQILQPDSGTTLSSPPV
Description for src protein kinase: This assay is used to determine src protein kinase activity measuring phosphorylation of a biotinylated peptide as the readout.
Yeast transformed with src (Sugen, Inc., Redwood City, Calif.). • b. Cell lysates: Yeast cells expressing src are pelleted, washed once with water, re-pelleted and stored at −80° C. until use. • c. N-terminus biotinylated [sequence] is prepared by standard procedures well known to those skilled in the art. • d. DMSO: Sigma, St. Louis, Mo. • e. […] Vecastain ELITE ABC reagent: Vector, Burlingame, Calif. • h. […] S. Pombe strain SP200 (h-s leul.32 ura4 ade210) is grown as described and transformations are pRSP expression plasmids are done by the lithium acetate method (Superti-Furga, supra). Cells are grown in the presence of 1 μM thiamine to repress expression from the nmtl promoter or in the absence of thiamine to induce expression. • i. […] Turbo TMB-ELISA peroxidase substrate: Pierce Chemical.
Buffer Solutions • a. PBS (Dulbecco's Phosphate-Buffered Saline): GIBCO PBS, GIBCO Cat. #450-1300EB. • b. Blocking Buffer: 5% Non-fat milk (Carnation) in PBS. • c. Carbonate Buffer: Na2CO4 from Fischer, Cat. # S495, make up 100 mM stock solution. • d. Kinase Buffer: 1.0 ml (from 1M stock solution) MgCl2, 0.2 ml (from a 1M stock solution) MnCl2, 0.2 ml (from a 1M stock solution) DTT, 5.0 ml (from a 1M stock solution) HEPES, 0.1 ml TX-100, bring to 10 ml total volume with MilliQ H2O. • e. […] NaCl: Fischer Cat. # S271-10, Make up 5M stock solution with MilliQ H2O. • i. […] MgCl2: Fischer Cat. # M33-500, make up 1M stock solution with MilliQ H2O. • k. […] MnCl2: Fischer Cat. # M87-100, make up 1M stock solution with MilliQ H2O. • n. DTT: -Fischer Cat. # BP172-5. • o. […] Kinase Reaction Mixture: Amount per assay plate (100 wells): 1.0 ml Kinase Buffer, 200 λg GST-ζ, bring to final volume of 8.0 ml with MilliQ H2O. • q. […] Then add 1 drop of reagent B. Put tube on orbital shaker at room temperature and mix for 30 minutes.
Preparation of src Coated ELISA Plate. • 1. Coat ELISA plate with 0.5 μg/well anti-src mab in 100 μl of pH 9.6 sodium carbonate buffer, hold at 40° C. overnight. • 2. Wash wells once with PBS. • 3. […] Wash plate 5× with PBS. • 5. Add 10 μg/well of src transformed yeast lysates diluted in Lysis Buffer (0.1 ml total volume per well). (Amount of lysate may vary between batches.) Shake plate for 20 minutes at room temperature.
Preparation of Phosphotyrosine Antibody-coated ELISA Plate. • 1. 4G10 plate: coat 0.5 μg/well 4G10 in 100 μl PBS overnight at 4° C. and block with 150 μl of 5% milk in PBS for 30 minutes at room temperature.
Kinase Assay Procedure. • 1. Remove unbound proteins from plates and wash plates 5× with PBS. • 2. […] Wash plate 5× with TBST. • 10. Incubate with Vectastain ELITE ABC reagent (100 μl/well) for 30 min. at room temperature. • 11. Wash the wells 5× with TBST. • 12. Develop with Turbo TMB.

For `CNC(=O)CCc1c(/C=C2\C(=O)Nc3ccccc32)[nH]c2c1CCCC2` [Example 201, N-Methyl-3-[2-(2-oxo-1,2-dihydroindol-3-ylidenemethyl)-4,5,6,7-tetrahydro-1H-indol-3-yl]-propionamide], the IC50 is 570 nM against flkGST; under 30 nM in experiment [1]; 3900 nM in experiment [2] (setting [3]); 0.16 µM at human flk-1; 6610 nM on pyk2.

Consider `O=C(CCc1c(/C=C2\C(=O)Nc3ccccc32)[nH]c2c1CCCC2)NCCN1CCOCC1` [Example 202, N-(2-Morpholin-4-ylethyl)-3-[2-(2-oxo-1,2-dihydroindol-3-ylidenemethyl)-4,5,6,7-tetrahydro-1H-indol-3-yl]-propionamide], for which the IC50 was 2540 nM at flkGST; over 50000 nM on src protein kinase; under 30 nM in experiment [1]; 5200 nM in experiment [2] (setting [3]); 0.63 µM at human flk-1.

For the compound `COc1ccc2c(c1)NC(=O)/C2=C\c1[nH]c2c(c1CCC(=O)O)CCCC2` [Example 196, 3-[2-(6-Methoxy-2-oxo-1,2-dihydroindol-3-ylidenemethyl)-4,5,6,7-tetrahydro-1H-indol-3-yl]-propionic acid], the IC50 against flkGST came out at 410 nM; at src protein kinase, 11300 nM; in experiment [1] it was 20 nM; in experiment [2] (setting [3]), 3000 nM; at human flk-1, 0.89 µM; on pyk2, 2370 nM.

As for `O=C(O)CCc1c(/C=C2\C(=O)Nc3cc(Cl)ccc32)[nH]c2c1CCCC2` [Example 195, 3-[2-(6-Chloro-2-oxo-1,2-dihydroindol-3-ylidenemethyl)-4,5,6,7-tetrahydro-1H-indol-3-yl]-propionic acid], the IC50 was found to be 4350 nM at flkGST; 260 nM at src protein kinase; 3700 nM in experiment [2] (setting [3]); 0.03 µM on human flk-1; 10700 nM on pyk2.

`O=C(O)CCc1c(/C=C2\C(=O)Nc3ccc(Br)cc32)[nH]c2c1CCCC2` [Example 192, 3-[2-(5-Bromo-2-oxo-1,2-dihydroindol-3-ylidenemethyl)-4,5,6,7-tetrahydro-1H-indol-3yl]-propionic acid]: the IC50 at flkGST stood at 30 nM; on src protein kinase, 10500 nM; in experiment [1], 0.3 nM; in experiment [2] (setting [3]) it was 1400 nM; at human flk-1, 0.03 µM; against pyk2, 4870 nM.

As for `Cc1cccc2c1/C(=C/c1[nH]c3c(c1CCC(=O)O)CCCC3)C(=O)N2` [Example 193, 3-[2-(4-Methyl-2-oxo-1,2-dihydroindol-3-ylidenemethyl)-4,5,6,7-tetrahydro-1H-indol-3-yl]-propionic acid], the IC50 against flkGST came to 3600 nM; at src protein kinase it was 48600 nM; in experiment [2] (setting [3]) it was 13500 nM; at human flk-1, 0.02 µM; against pyk2, 17300 nM.

With `COc1ccc2c(c1)NC(=O)/C2=C\c1[nH]cc(C)c1CCC(=O)O` [Example 217, 3-[2-(6-Methoxy-2-oxo-1,2-dihydroindol-3-ylidenemethyl)-4-methyl-1H-pyrrol-3-yl]-propionic acid], the IC50 at src protein kinase is 3680 nM; in experiment [2] (setting [3]) it was 8700 nM; on human flk-1, 1.47 µM; against pyk2, 2890 nM.

With `Cc1c[nH]c(/C=C2\C(=O)Nc3ccccc32)c1CCC(=O)O` [Example 215, 3-[4-Methyl-2-(2-oxo-1,2-dihydroindol-3-ylidenemethyl)-1H-pyrrol-3-yl]-propionic acid], the IC50 was 80 nM on flkGST, 5590 nM on src protein kinase, 20000 nM in experiment [2] and 6900 nM against pyk2.

Regarding `Cc1c[nH]c(/C=C2\C(=O)Nc3ccc(Cl)cc32)c1CCC(=O)O` [Example 216, 3-[2-(5-Chloro-2-oxo-1,2-dihydroindol-3-ylidenemethyl)-4-methyl-1H-pyrrol-3-yl]-propionic acid], the IC50 on src protein kinase was 4750 nM; in experiment [1], under 70 nM; on human flk-1 it was 2.91 µM; at pyk2, 23900 nM.

Regarding `Cc1c[nH]c(/C=C2\C(=O)Nc3cccc(C)c32)c1CCC(=O)O` [Example 218, 3-[2-(4-Methyl-2-oxo-1,2-dihydroindol-3-ylidenemethyl)-4-methyl-1H-pyrrol-3-yl]-propionic acid], the IC50 was 480 nM against flkGST; under 70 nM in experiment [1]; 24800 nM in experiment [2] (setting [3]); 0.2 µM on human flk-1; 32300 nM against pyk2.

With `O=C1Nc2ccccc2/C1=C/c1[nH]c2c(c1CCC(=O)N1CCOCC1)CCCC2` [Example 200, 3-[3-(3-Morpholin-4-yl-3-oxopropyl)-4,5,6,7-tetrahydro-1H-indol-2-ylmethylene]-1,3-dihydroindol-2-one], the IC50 against flkGST was 1290 nM; in experiment [2] (setting [3]), 8600 nM; at human flk-1, 0.97 µM; against pyk2, 5620 nM.

Consider `CN(C)CCCc1c(/C=C2\C(=O)Nc3ccccc32)[nH]c2c1CCCC2` [Example 198, 3-[3-(3-Dimethylaminopropyl)-4,5,6,7-tetrahydro-1H-indol-2-ylmethylene]-1,3-dihydroindol-2-one], for which the IC50 was determined as 5840 nM against flkGST; 2340 nM on src protein kinase; 4200 nM in experiment [2] (setting [3]); 7.44 µM on human flk-1; 1500 nM at pyk2.

Regarding `CN(C)C(=O)CCc1c(/C=C2\C(=O)Nc3ccccc32)[nH]c2c1CCCC2` [Example 197, N,N-Dimethyl-3-[2-(2-oxo-1,2-dihydroindol-3-ylidenemethyl)-4,5,6,7-tetrahydro-1H-indol-3-yl]-propionamide], the IC50 against flkGST was 610 nM; in experiment [1] it was under 3 nM; in experiment [2] (setting [3]), 4900 nM; at human flk-1 it was 2.1 µM; at pyk2, 12000 nM.

With `Cc1c[nH]c(C=C2C(=O)Nc3cc(Cl)ccc32)c1CCC(=O)O` [Example 219, 3-[2-(6-Chloro-2-oxo-1,2-dihydroindol-3-ylidenemethyl)-4-methyl-1H-pyrrol-3-yl]-propionic acid], the IC50 at src protein kinase is 80 nM; in experiment [2] (setting [3]), 7900 nM; on human flk-1 it was 0.19 µM; against pyk2, 4150 nM.

Consider `COc1ccc2c(c1)/C(=C/c1[nH]cc(C)c1CCC(=O)O)C(=O)N2` [Example 222, 3-[2-(5-Methoxy-2-oxo-1,2-dihydroindol-3-ylidenemethyl)-4-methyl-1H-pyrrol-3-yl]-propionic acid], for which the IC50 on flkGST was 180 nM; on src protein kinase, 5770 nM; in experiment [2] (setting [3]), over 50000 nM; on human flk-1, under 0.78 µM.

Turning to `NC(=O)CCc1c(/C=C2\C(=O)Nc3ccccc32)[nH]c2c1CCCC2` [Example 199, 3-[2-(2-Oxo-1,2-dihydroindol-3-ylidenemethyl)-4,5,6,7-tetrahydro-1H-indol-3-yl]-propionamide], the IC50 at flkGST is 170 nM; in experiment [1], under 30 nM; in experiment [2] (setting [3]), 3500 nM; on human flk-1 it was 0.13 µM; on pyk2, 2830 nM.

On to `O=C(O)CCc1c(/C=C2\C(=O)Nc3ccccc32)[nH]c2c1CCCC2` [Example 190, 3-[2-(2-Oxo-1,2-dihydro-indol-3-ylidenemethyl)-4,5,6,7-tetrahydro-1H-indol-3-yl]-propionic acid], for which the IC50 is 87 nM on flkGST; 110 nM at src protein kinase; 2900 nM in experiment [2] (setting [3]); 0.06 µM at human flk-1; under 780 nM on pyk2.

As usually defined, the IC50 is the midpoint of a concentration-inhibition curve.
